In ChEMBL document CHEMBL4351009, “hERG optimizations of IMB1603, discovery of alternative benzothiazinones as new antitubercular agents” (Eur J Med Chem, 2019):
In brackets after ≈: the same amount, converted by molar mass.

Legend:
[1] = system: Mycobacterium tuberculosis; experiment: Antimycobacterial activity against Mycobacterium tuberculosis H37Rv ATCC 27294 assessed as reduction in bacterial cell viability incubated for 7 days by microplate alamar blue assay; assay type: functional; details: H37Rv ATCC 27294, 168 h
hERG (KCNH2) = hERG (KCNH2) (Homo sapiens, UniProt Q12809); experiment: Inhibition of human ERG transfected in HEK293 cells at 10 uM by whole cell patch clamp assay relative to control; assay type: cell-based; details: HEK293 cells transfected with human ERG
[2] = Acute toxicity in ICR mouse assessed as mouse survival at 500 mg/kg, po observed continuously for 4 hrs and each hr for next 24 hrs and at 8 hrs interval for following 7 days; assay type: organism-based; details: in vivo
[3] = Half life in SPF ICR mouse at 25 mg/kg, po measured upto 24 hrs by HPLC analysis; assay type: ADME, organism-based; details: in vivo
[4] = Tmax in SPF ICR mouse at 25 mg/kg, po measured upto 24 hrs by HPLC analysis; assay type: ADME, organism-based; details: in vivo
[5] = Cmax in SPF ICR mouse at 25 mg/kg, po measured upto 24 hrs by HPLC analysis; assay type: ADME, organism-based; design: dose 25 mg/kg, route oral; details: in vivo
[6] = AUC (0 to t) in SPF ICR mouse at 25 mg/kg, po measured upto 24 hrs by HPLC analysis; assay type: ADME, organism-based; design: dose 25 mg/kg, time < 24 hr, route oral; details: in vivo
[7] = system: Mycobacterium tuberculosis; experiment: Antimycobacterial activity against Mycobacterium tuberculosis H37Rv infected in BALB/c mouse assessed as reduction in colony forming unit in lung at 25 mg/kg, po administered once daily for 5 days a week for 3 weeks; assay type: functional

Chain of hERG (KCNH2) (Q12809 whole entry): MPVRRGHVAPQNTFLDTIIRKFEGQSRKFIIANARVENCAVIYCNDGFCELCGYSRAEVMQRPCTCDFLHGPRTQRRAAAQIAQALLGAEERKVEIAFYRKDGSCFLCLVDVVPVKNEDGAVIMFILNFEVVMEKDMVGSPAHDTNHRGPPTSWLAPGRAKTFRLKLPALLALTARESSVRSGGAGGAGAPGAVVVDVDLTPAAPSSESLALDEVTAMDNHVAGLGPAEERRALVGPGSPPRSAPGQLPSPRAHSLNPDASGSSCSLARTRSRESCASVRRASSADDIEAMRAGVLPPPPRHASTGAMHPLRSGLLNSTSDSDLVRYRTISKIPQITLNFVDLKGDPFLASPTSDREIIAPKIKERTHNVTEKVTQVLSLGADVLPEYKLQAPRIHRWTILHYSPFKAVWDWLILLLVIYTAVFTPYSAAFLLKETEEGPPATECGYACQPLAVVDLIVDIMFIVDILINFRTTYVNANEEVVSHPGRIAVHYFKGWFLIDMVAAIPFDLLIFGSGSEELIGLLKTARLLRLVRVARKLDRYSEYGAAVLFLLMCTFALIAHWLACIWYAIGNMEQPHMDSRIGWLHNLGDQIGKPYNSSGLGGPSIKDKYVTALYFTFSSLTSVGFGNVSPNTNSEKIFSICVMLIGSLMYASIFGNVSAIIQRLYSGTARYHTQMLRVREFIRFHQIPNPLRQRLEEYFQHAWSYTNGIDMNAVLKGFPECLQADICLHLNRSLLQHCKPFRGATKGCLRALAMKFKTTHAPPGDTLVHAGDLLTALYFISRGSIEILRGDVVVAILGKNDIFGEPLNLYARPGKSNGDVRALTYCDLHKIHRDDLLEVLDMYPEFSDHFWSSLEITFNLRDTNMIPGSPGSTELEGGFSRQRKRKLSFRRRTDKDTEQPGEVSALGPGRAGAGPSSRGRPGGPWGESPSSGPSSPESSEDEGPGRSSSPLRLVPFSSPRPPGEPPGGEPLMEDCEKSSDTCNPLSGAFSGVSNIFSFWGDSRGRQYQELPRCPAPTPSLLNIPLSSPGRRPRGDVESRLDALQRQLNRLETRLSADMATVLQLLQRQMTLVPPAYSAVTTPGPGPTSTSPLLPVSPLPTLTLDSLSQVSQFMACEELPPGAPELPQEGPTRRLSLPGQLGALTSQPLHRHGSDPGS

Row | SMILES | MIC [1] [µM] | inhibition at 10 µM (hERG (KCNH2)) [%] | further results
1 | O=c1nc(N2CCC3(CCN(c4ccc(F)cc4)C3)CC2)sc2c([N+](=O)[O-])cc(C(F)(F)F)cc12 | < 0.035 | 23 | Activity [2]: Non-Toxic; half-life [3]: 287 min; Tmax [4]: 30 min; Cmax [5]: 1610 ng/mL; AUC(0-t) at 24 h [6]: 5030 ng·h/mL
2 | O=c1nc(N2CCC3(CCN(Cc4ccc([N+](=O)[O-])c(Br)c4)C3)CC2)sc2c([N+](=O)[O-])cc(C(F)(F)F)cc12 | < 0.035 | 88.6 | –
3 | O=c1nc(N2CCC3(CCN(Cc4ccccc4F)C3)CC2)sc2c([N+](=O)[O-])cc(C(F)(F)F)cc12 | < 0.035 | 94.9 | –
4 | O=c1nc(N2CCC3(CCN(Cc4ccc5ccccc5c4)C3)CC2)sc2c([N+](=O)[O-])cc(C(F)(F)F)cc12 | < 0.035 | 78.1 | –
5 | O=c1nc(N2CCN(CC3CCCCC3)CC2)sc2c([N+](=O)[O-])cc(C(F)(F)F)cc12 [MACOZINONE] | < 0.035 | 41.6 | Activity [2]: Non-Toxic; half-life [3]: 380 min; Tmax [4]: 19.8 min; Cmax [5]: 1750 ng/mL; AUC(0-t) at 24 h [6]: 2480 ng·h/mL
6 | O=c1nc(N2CCC3(CCN(Cc4cccc5ccccc45)C3)CC2)sc2c([N+](=O)[O-])cc(C(F)(F)F)cc12 | 0.055 (≈ 0.0305 µg/mL) | – | –
7 | O=c1nc(N2CCN(C3CCN(Cc4ccc(F)cc4)CC3)CC2)sc2c([N+](=O)[O-])cc(C(F)(F)F)cc12 | 0.054 (≈ 0.0298 µg/mL) | 95.6 | –
8 | N#Cc1ccc(CN2CCC3(CCN(c4nc(=O)c5cc(C(F)(F)F)cc([N+](=O)[O-])c5s4)CC3)C2)cc1 | < 0.035 | 90.6 | –
9 | CC(c1ccc(Cl)cc1)N1CCC2(CCN(c3nc(=O)c4cc(C(F)(F)F)cc([N+](=O)[O-])c4s3)CC2)CC1 (centres undefined) | < 0.035 | 73.4 | –
10 | CO[C@H]1/C=C/O[C@@]2(C)Oc3c(C)c(O)c4c(O)c(c(/C=N/N5CCN(C)CC5)c(O)c4c3C2=O)NC(=O)/C(C)=C\C=C\[C@H](C)[C@H](O)[C@@H](C)[C@@H](O)[C@@H](C)[C@H](OC(C)=O)[C@@H]1C [RIFAMPIN] | 0.164 (≈ 0.135 µg/mL) | – | –
11 | O=c1nc(N2CCC3(CCN(Cc4ccc[nH]4)C3)CC2)sc2c([N+](=O)[O-])cc(C(F)(F)F)cc12 | 1.58 (≈ 0.778 µg/mL) | – | –
12 | O=c1nc(N2CCC3(CCN(Cc4cccs4)C3)CC2)sc2c([N+](=O)[O-])cc(C(F)(F)F)cc12 | < 0.035 | 96.2 | –
13 | O=c1nc(N2CC3CC2CN3Cc2ccc(F)cc2)sc2c([N+](=O)[O-])cc(C(F)(F)F)cc12 (centres undefined) | < 0.035 | 94.3 | –
14 | O=c1nc(N2CCC3(CCN(Cc4ccc(F)cc4)C3)CC2)sc2c([N+](=O)[O-])cc(C(F)(F)F)cc12 | < 0.035 | 95.7 | Activity [7]: 3.2 log10CFU
15 | O=c1nc(N2CCC3(CCN(CCc4ccc(F)cc4)C3)CC2)sc2c([N+](=O)[O-])cc(C(F)(F)F)cc12 | 0.055 (≈ 0.0295 µg/mL) | 92.7 | –
16 | Cn1cccc1CN1CCC2(CCN(c3nc(=O)c4cc(C(F)(F)F)cc([N+](=O)[O-])c4s3)CC2)C1 | 0.479 (≈ 0.243 µg/mL) | – | –
17 | O=c1nc(N2CCC3(CCN(CCCc4ccc(F)cc4)C3)CC2)sc2c([N+](=O)[O-])cc(C(F)(F)F)cc12 | < 0.035 | 85.8 | –
18 | O=c1nc(N2CC3CN(Cc4ccc(F)cc4)CC3C2)sc2c([N+](=O)[O-])cc(C(F)(F)F)cc12 (centres undefined) | 0.248 (≈ 0.123 µg/mL) | – | –

Row | SMILES | MIC [1] [µM] | inhibition at 10 µM (hERG (KCNH2)) [%] | further results
19 | CC(c1ccc(F)cc1)N1CCC2(CCN(c3nc(=O)c4cc(C(F)(F)F)cc([N+](=O)[O-])c4s3)CC2)CC1 (centres undefined) | 0.107 (≈ 0.0589 µg/mL) | 74 | –
20 | O=c1nc(N2CCC3(CCN(Cc4cc(C(F)(F)F)cc(C(F)(F)F)c4)C3)CC2)sc2c([N+](=O)[O-])cc(C(F)(F)F)cc12 | < 0.035 | 83.3 | –
21 | O=c1nc(N2CCC3(CCN(Cc4ccc(Br)cc4)CC3)CC2)sc2c([N+](=O)[O-])cc(C(F)(F)F)cc12 | < 0.035 | 97 | –
22 | NNC(=O)c1ccncc1 [ISONIAZID] | 0.269 (≈ 0.0369 µg/mL) | – | –
23 | O=c1nc(N2CCC3(CCN(Cc4cccnc4)C3)CC2)sc2c([N+](=O)[O-])cc(C(F)(F)F)cc12 | 0.235 (≈ 0.119 µg/mL) | – | –
24 | O=c1nc(N2CCC3(CCN(Cc4ccc([N+](=O)[O-])cc4)C3)CC2)sc2c([N+](=O)[O-])cc(C(F)(F)F)cc12 | < 0.035 | 94.1 | –
25 | CC(c1ccc(C(F)(F)F)cc1)N1CCC2(CCN(c3nc(=O)c4cc(C(F)(F)F)cc([N+](=O)[O-])c4s3)CC2)CC1 (centres undefined) | < 0.035 | 72.9 | –
26 | COc1ccc2[nH]cc(CN3CCC4(CCN(c5nc(=O)c6cc(C(F)(F)F)cc([N+](=O)[O-])c6s5)CC4)C3)c2c1 | 1.48 (≈ 0.848 µg/mL) | – | –
27 | O=c1nc(N2CCC3(CCN(Cc4ncco4)C3)CC2)sc2c([N+](=O)[O-])cc(C(F)(F)F)cc12 | 0.248 (≈ 0.123 µg/mL) | 53.2 | –
28 | CC(c1ccc(Br)cc1)N1CCC2(CCN(c3nc(=O)c4cc(C(F)(F)F)cc([N+](=O)[O-])c4s3)CC2)CC1 (centres undefined) | < 0.035 | 77.2 | –
29 | O=c1nc(N2CC3CCC2CN3Cc2ccc(F)cc2)sc2c([N+](=O)[O-])cc(C(F)(F)F)cc12 (centres undefined) | 0.078 (≈ 0.0386 µg/mL) | 34.9 | Activity [2]: Non-Toxic; half-life [3]: 75 min; Tmax [4]: 15 min; Cmax [5]: 3040 ng/mL; AUC(0-t) at 24 h [6]: 3550 ng·h/mL
30 | O=c1nc(N2CCC3(CCN(Cc4ccccn4)C3)CC2)sc2c([N+](=O)[O-])cc(C(F)(F)F)cc12 | 0.477 (≈ 0.241 µg/mL) | – | –
31 | O=c1nc(N2CCC3(CCN(Cc4cccc(F)c4F)C3)CC2)sc2c([N+](=O)[O-])cc(C(F)(F)F)cc12 | < 0.035 | 88.5 | –
32 | O=c1nc(N2CCC3(CCN(Cc4ccc(OC(F)(F)F)cc4)C3)CC2)sc2c([N+](=O)[O-])cc(C(F)(F)F)cc12 | < 0.035 | 90.2 | –
33 | CCC(c1ccc(C(F)(F)F)cc1)N1CCC2(CCN(c3nc(=O)c4cc(C(F)(F)F)cc([N+](=O)[O-])c4s3)CC2)CC1 (centres undefined) | < 0.035 | 69.7 | –
34 | O=c1nc(N2CCC3(CCN(Cc4ccc(C(F)(F)F)cc4)CC3)CC2)sc2c([N+](=O)[O-])cc(C(F)(F)F)cc12 | < 0.035 | 94.6 | –
35 | O=c1nc(N2CCC3(CCN(Cc4ccncc4)C3)CC2)sc2c([N+](=O)[O-])cc(C(F)(F)F)cc12 | 0.122 (≈ 0.0617 µg/mL) | 74.1 | –
36 | O=c1nc(N2CCC3(CCN(Cc4ccc(C(F)(F)F)cc4C(F)(F)F)C3)CC2)sc2c([N+](=O)[O-])cc(C(F)(F)F)cc12 | < 0.035 | 68.6 | –
